Source: US11078202B2, “β-lactamase inhibitor and use thereof” (priority 2018, dated 2021)
Counter-ions that a name gives are not always drawn.

Experiments:
Type in all cases: cell-based
[1] = system: Klebsiella pneumoniae XNWB 0001; test: MIC assay of test compounds combined with ceftazidime (8 μg/mL); settings: ceftazidime 8 μg/mL fixed
Outline: (§1)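 Colonies from 20-24 h TSA plates (35±2 °C) → saline, OD600 0.1-0.15 → 300-fold dilution in 1.1×CAMHB → added to compound plus fixed antibiotic wells, growth and sterility controls included → 16-20 h at 35±2 °C → MIC by CLSI criteria.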

[2] = system: Klebsiella pneumoniae XNWB 0006; test: as above; settings: ceftazidime 8 μg/mL fixed
Outline: as §1

[3] = system: Klebsiella pneumoniae XNWB 0004; test: as above; settings: ceftazidime 8 μg/mL fixed
Outline: as §1

[4] = system: Klebsiella pneumoniae XNWB 0002; test: as above; settings: ceftazidime 8 μg/mL fixed
Outline: as §1

[5] = system: Pseudomonas aeruginosa XNWB 0008; test: as above; settings: ceftazidime 8 μg/mL fixed
Outline: as §1

[6] = system: Acinetobacter baumannii XNWB 0007; test: as above; settings: ceftazidime 8 μg/mL fixed
Outline: as §1

[7] = system: Klebsiella pneumoniae XNWB 0003; test: as above; settings: ceftazidime 8 μg/mL fixed
Outline: as §1

[8] = system: Klebsiella pneumoniae XNWB 0005; test: as above; settings: ceftazidime 8 μg/mL fixed
Outline: as §1

[9] = system: Klebsiella pneumoniae XNWB 0001; test: MIC assay of test compounds combined with imipenem (4 μg/mL); settings: imipenem 4 μg/mL fixed
Outline: as §1

[10] = system: Klebsiella pneumoniae XNWB 0006; test: as above; settings: imipenem 4 μg/mL fixed
Outline: as §1

[11] = system: Klebsiella pneumoniae XNWB 0004; test: as above; settings: imipenem 4 μg/mL fixed
Outline: as §1

[12] = system: Klebsiella pneumoniae XNWB 0002; test: as above; settings: imipenem 4 μg/mL fixed
Outline: as §1

[13] = system: Pseudomonas aeruginosa XNWB 0008; test: as above; settings: imipenem 4 μg/mL fixed
Outline: as §1

[14] = system: Acinetobacter baumannii XNWB 0007; test: as above; settings: imipenem 4 μg/mL fixed
Outline: as §1

[15] = system: Klebsiella pneumoniae XNWB 0003; test: as above; settings: imipenem 4 μg/mL fixed
Outline: as §1

[16] = system: Klebsiella pneumoniae XNWB 0005; test: as above; settings: imipenem 4 μg/mL fixed
Outline: as §1

With `O=C1N2C[C@H](N1OS(=O)(=O)O)C1(CC1)C[C@H]2c1nnco1` [Example 1, (1R,4S)-4-(1,3,4-oxadiazol-2-yl)-6-oxo-5,7-diazaspiro[bicyclo[3.2.1]octane-2,1′-cyclopropan]-7-yl sulfate] as the compound, how does the “The minimum concentration of test compounds combined with ceftazidime (8 μg/mL) for bacteriostasis” value [1] read?
Its value is “A (A: <8 μg/mL)”.

What about the “The minimum concentration of test compounds combined with ceftazidime (8 μg/mL) for bacteriostasis” value [2] of the same compound?
Its value is “A (A: <8 μg/mL)”.

And the “The minimum concentration of test compounds combined with ceftazidime (8 μg/mL) for bacteriostasis” value [3]?
The value was “B (B: 8-16 μg/mL)”.

What about the “The minimum concentration of test compounds combined with ceftazidime (8 μg/mL) for bacteriostasis” value [4] of the same compound?
Its value is “A (A: <8 μg/mL)”.

What about the “The minimum concentration of test compounds combined with ceftazidime (8 μg/mL) for bacteriostasis” value [5] of the same compound?
The value was “C (C: 16-128 μg/mL)”.

What about the “The minimum concentration of test compounds combined with ceftazidime (8 μg/mL) for bacteriostasis” value [6] of the same compound?
Its value is “C (C: 16-128 μg/mL)”.

What about the “The minimum concentration of test compounds combined with ceftazidime (8 μg/mL) for bacteriostasis” value [7] of the same compound?
The value was “A (A: <8 μg/mL)”.

And the “The minimum concentration of test compounds combined with ceftazidime (8 μg/mL) for bacteriostasis” value [8]?
The value was “A (A: <8 μg/mL)”.

And the “The minimum concentration of test compounds combined with imipenem (4 μg/mL) for bacteriostasis” value [9]?
The value was “A (A: <8 μg/mL)”.

What about the “The minimum concentration of test compounds combined with imipenem (4 μg/mL) for bacteriostasis” value [10] of the same compound?
Its value is “A (A: <8 μg/mL)”.

What about the “The minimum concentration of test compounds combined with imipenem (4 μg/mL) for bacteriostasis” value [11] of the same compound?
The value was “A (A: <8 μg/mL)”.

What about the “The minimum concentration of test compounds combined with imipenem (4 μg/mL) for bacteriostasis” value [12] of the same compound?
Its value is “A (A: <8 μg/mL)”.

And the “The minimum concentration of test compounds combined with imipenem (4 μg/mL) for bacteriostasis” value [13]?
Its value is “C (C: 16-128 μg/mL)”.

What about the “The minimum concentration of test compounds combined with imipenem (4 μg/mL) for bacteriostasis” value [14] of the same compound?
The value was “C (C: 16-128 μg/mL)”.

What about the “The minimum concentration of test compounds combined with imipenem (4 μg/mL) for bacteriostasis” value [15] of the same compound?
The value was “A (A: <8 μg/mL)”.

What about the “The minimum concentration of test compounds combined with imipenem (4 μg/mL) for bacteriostasis” value [16] of the same compound?
Its value is “A (A: <8 μg/mL)”.

Which results are given for `N=C(N)NCCc1cc([C@@H]2CC3(CC3)[C@@H]3CN2C(=O)N3OS(=O)(=O)O)no1` [Example 36, (1R,4S)-4-(5-(2-guanidinoethyl)isoxazol-3-yl)-6-oxo-5,7-diazaspiro[bicyclo[3.2.1]octane-2,1′-cyclopropan]-7-yl sulfate]?
The minimum concentration of test compounds combined with ceftazidime (8 μg/mL) for bacteriostasis [1]: A (A: <8 μg/mL); The minimum concentration of test compounds combined with ceftazidime (8 μg/mL) for bacteriostasis [2]: A (A: <8 μg/mL); The minimum concentration of test compounds combined with ceftazidime (8 μg/mL) for bacteriostasis [3]: B (B: 8-16 μg/mL); The minimum concentration of test compounds combined with ceftazidime (8 μg/mL) for bacteriostasis [4]: A (A: <8 μg/mL); The minimum concentration of test compounds combined with ceftazidime (8 μg/mL) for bacteriostasis [5]: B (B: 8-16 μg/mL); The minimum concentration of test compounds combined with ceftazidime (8 μg/mL) for bacteriostasis [6]: C (C: 16-128 μg/mL); The minimum concentration of test compounds combined with ceftazidime (8 μg/mL) for bacteriostasis [7]: A (A: <8 μg/mL); The minimum concentration of test compounds combined with ceftazidime (8 μg/mL) for bacteriostasis [8]: A (A: <8 μg/mL); The minimum concentration of test compounds combined with imipenem (4 μg/mL) for bacteriostasis [9]: A (A: <8 μg/mL); The minimum concentration of test compounds combined with imipenem (4 μg/mL) for bacteriostasis [10]: A (A: <8 μg/mL); The minimum concentration of test compounds combined with imipenem (4 μg/mL) for bacteriostasis [11]: A (A: <8 μg/mL); The minimum concentration of test compounds combined with imipenem (4 μg/mL) for bacteriostasis [12]: A (A: <8 μg/mL); The minimum concentration of test compounds combined with imipenem (4 μg/mL) for bacteriostasis [13]: A (A: <8 μg/mL); The minimum concentration of test compounds combined with imipenem (4 μg/mL) for bacteriostasis [14]: C (C: 16-128 μg/mL); The minimum concentration of test compounds combined with imipenem (4 μg/mL) for bacteriostasis [15]: A (A: <8 μg/mL); The minimum concentration of test compounds combined with imipenem (4 μg/mL) for bacteriostasis [16]: A (A: <8 μg/mL)

For `N=C(N)NC[C@@H](O)c1cc([C@@H]2CC3(CC3)[C@@H]3CN2C(=O)N3OS(=O)(=O)O)no1` [Example 40, (1R,4S)-4-(5-((R)-2-guanidyl-1-hydroxyethyl)isoxazol-3-yl)-6-oxo-5,7-diazaspiro [bicyclo[3.2.1]octane-2,1′-cyclopropan]-7-yl sulfate], which “The minimum concentration of test compounds combined with ceftazidime (8 μg/mL) for bacteriostasis” value [1] is on record?
The value was “A (A: <8 μg/mL)”.

And the “The minimum concentration of test compounds combined with ceftazidime (8 μg/mL) for bacteriostasis” value [2]?
Its value is “A (A: <8 μg/mL)”.

And the “The minimum concentration of test compounds combined with ceftazidime (8 μg/mL) for bacteriostasis” value [3]?
The value was “A (A: <8 μg/mL)”.

And the “The minimum concentration of test compounds combined with ceftazidime (8 μg/mL) for bacteriostasis” value [4]?
The value was “A (A: <8 μg/mL)”.

What about the “The minimum concentration of test compounds combined with ceftazidime (8 μg/mL) for bacteriostasis” value [5] of the same compound?
Its value is “B (B: 8-16 μg/mL)”.

What about the “The minimum concentration of test compounds combined with ceftazidime (8 μg/mL) for bacteriostasis” value [6] of the same compound?
The value was “C (C: 16-128 μg/mL)”.

What about the “The minimum concentration of test compounds combined with ceftazidime (8 μg/mL) for bacteriostasis” value [7] of the same compound?
Its value is “A (A: <8 μg/mL)”.

What about the “The minimum concentration of test compounds combined with ceftazidime (8 μg/mL) for bacteriostasis” value [8] of the same compound?
Its value is “A (A: <8 μg/mL)”.

And the “The minimum concentration of test compounds combined with imipenem (4 μg/mL) for bacteriostasis” value [9]?
The value was “A (A: <8 μg/mL)”.

What about the “The minimum concentration of test compounds combined with imipenem (4 μg/mL) for bacteriostasis” value [10] of the same compound?
Its value is “A (A: <8 μg/mL)”.

What about the “The minimum concentration of test compounds combined with imipenem (4 μg/mL) for bacteriostasis” value [11] of the same compound?
Its value is “A (A: <8 μg/mL)”.

And the “The minimum concentration of test compounds combined with imipenem (4 μg/mL) for bacteriostasis” value [12]?
Its value is “A (A: <8 μg/mL)”.

What about the “The minimum concentration of test compounds combined with imipenem (4 μg/mL) for bacteriostasis” value [13] of the same compound?
The value was “A (A: <8 μg/mL)”.

And the “The minimum concentration of test compounds combined with imipenem (4 μg/mL) for bacteriostasis” value [14]?
Its value is “C (C: 16-128 μg/mL)”.

And the “The minimum concentration of test compounds combined with imipenem (4 μg/mL) for bacteriostasis” value [15]?
Its value is “A (A: <8 μg/mL)”.

What about the “The minimum concentration of test compounds combined with imipenem (4 μg/mL) for bacteriostasis” value [16] of the same compound?
The value was “A (A: <8 μg/mL)”.
